Here are results for two compounds from patent publication US4015002A, “1-Aryl-2-oxo-2,4,5,6,7,7a-hexahydro-indoles, salts, pharmaceutical compositions and methods of use” (Laboratoire Roger Bellon, priority 1974, dated 1977).

Series [1] relates to dog. Description: Cardiac isochaemal hypoxy in the dog (Sodi-Pallares preparation). Type of series: in vivo. The settings on record: i.v. 10 or 25 mg/kg. The protocol:
After ligature of the anterior intraventricular coronary artery (Sodi-Pallares preparation), intravenous administration of 10 or 25 mg/kg of the compound of Example 3, increased the strength of cardiac contractions and the ventricular dp/dt return, which reflects a […] in the contractile state of the myocardial fibres.

For series [2], the system named is anaethestized dog. Description: Action on femoral delivery, aortal pressure and cardiac rhythm in the anaesthetized dog. It is filed as in vivo. The protocol: This was investigated in an anaethestized dog, the compounds under test being administered by intraveneous perfusion (over 5 minutes). The various compounds under test were compared by administering all of them at a dose per kilogram corresponding to 1/10 of the mouse LD50 (I.V.).
Simultaneously were measured: variations of femoral delivery, aortal pressure, and cardiac rhythm. Table II indicates the maximum variations of these different parameters observed over the 30 minutes which followed administration of various compounds. These variations are expressed in percent based on the initial values.

In series [3] the test system is rat. The series is described as follows: Protection against cerebral isochaemial hypoxy in the rat (clamping of carotid and basilar artery, E.E.G.). The settings on record: 5 mg/kg i.v. It is filed as in vivo. The protocol:
The protective effect of the compound of Example 3 with regard to cerebal isochaemal hypoxy is shown for at least 3 hours after injection.

A short description of series [4]: Toxicity, intravenous in the mouse. The settings on record: in vivo, i.v. The protocol:
The toxicities of the various compound were determined intravenously in the mouse.

Series [5] deals with isolated heart of the rabbit. The series is described as follows: Cardiac action on the isolated heart of a rabbit (Langendorf preparation). The settings on record: for EC20: Oryctolagus cuniculus. The protocol:
(§1) This was examined according to known methods in the isolated auricle (Trevan preparation) and in the isolated heart of a rabbit (Langendorf preparation).
In the Langendorf preparation, the action of the compounds was determined from three parameters; the amplitude of contractions, coronary delivery, and rhythm. […] The results are indicated in Table 1; an arrow ↓ indicates a diminution, and an arrow ↑ an augmentation.

The test system of series [6] is platelet aggregation. Description: Platelet aggregation in human blood. It is filed as cell-based.
In series [7] the test system is cardiovascular system. The series is described as follows: Overall action on the cardiovascular system. It is filed as in vivo. From the text:
Compounds in accordance with the invention have shown a marked action on the cardiovascular system, particularly as coronary and cerebal peripheral vasodilators. Some of the compounds have also shown activity as hypotensives or hypertensives. […] In these tests, aqueous solutions of the salts described in the cited Examples were used.

A short description of series [8]: Hygroscopicity of the hydrochloride. Type of series: physicochemical. The settings on record: hydrochloride salt.
Series [9] deals with isolated auricle. The series is described as follows: Cardiac action on the isolated auricle (Trevan preparation): amplitude of contractions. To be noted: arrows for diminution/increase are drawings, 0 = inactive, read-out: Action on the isolated auricle: minimum concentration producing a variation of 20% in amplitude of contractions. The protocol:
as §1
Cardiac action of the compounds in question was evaluated according to the amplitude of contractions of the isolated auricle.

The mark [10] stands for this setting: i.v. perfusion over 5 min, dose 1/10 of mouse LD50, percent based on initial values.
Where [11] appears, read: direction arrow is a drawing, read-out: Amplitude of contractions: concentration producing a variation of 20%.

Values after ≈ are worked out from the molar mass of the structure shown. “Also recorded” adds a separate entry of the source. Like-named read-outs stand apart in the source and are kept apart here.

On to `O=C1C=C2CCCCC2N1c1ccc(OCCN2CCOCC2)cc1` (stereo not shown) [Example 3, 1-[4-(2-morpholinoethoxy)-phenyl]-2-oxo-2,4,5,6,7,7a-hexahydro-indole], for which the “Protection with regard to cardiac isochaemal hypoxy” value in series [1] was “showed protective properties”. The “Strength of cardiac contractions” value in series [1] (after coronary artery ligature) is “increased”. Moreover, the Ventricular dp/dt return entry in [1] (after coronary artery ligature) is “increased”. Further, the “Aortal pressure (in words)” value in [2] (anaesthetized dog, i.v.) was “without modifying aortal pressure; also recorded: without changes in aortal pressure”; in series [2] (anaesthetized dog, i.v., listed as Example 4) it was “without changes in aortal pressure”. Also, the “Cardiac frequency (in words)” value in [2] (anaesthetized dog, i.v.) was “without modifying aortal pressure or cardiac frequency”. For the same compound, the “Vasodilator action (in words)” value in series [2] (anaesthetized dog, i.v., 1/10 of mouse LD50) is on record as “clearly vasodilators”. Moreover, in series [2] (setting [10]), the “Aortal pressure, maximum variation in 30 minutes” value is recorded as 0%. Besides, the “Protection with regard to cerebral isochaemial hypoxy” value in [3] is “marked protecting properties”. Moreover, the “Delay in the appearance of electrical silence in the E.E.G.” value in series [3] (after beginning of clamping) is listed as “significantly increased”. In addition, the “Duration of protective effect with regard to cerebral hypoxy” value in [3] (after injection) is listed as “at least 3 hours”. Besides, in series [3] (after removal of the clamps), the “Delay in normalization of the E.E.G. trace” value was “significantly reduced”. Moreover, the “Period of electrical silence of the E.E.G.” value in series [3] (during clamping and after removal of clamps) is reported as “significantly reduced”. Moreover, the LD50 (usually the dose at which mortality reaches 50%) in [4] worked out at 225 mg/kg. The “Coronary delivery (in words)” value in series [5] is on record as “did not modify coronary rhythm or augment coronary delivery”. The “Coronary rhythm (in words)” value in series [5] is “did not modify coronary rhythm”. The EC20 in [5] (augmentation, read-out: Concentration providing an augmentation of 20% in the amplitude of contractions) came to 10 µg/mL (≈ 29.2 µM); in [5] (setting [11]), 10 µg/mL (≈ 29.2 µM); in [5] (direction arrow is a drawing, read-out: Coronary delivery: concentration producing a variation of 20%), 20 µg/mL (≈ 58.4 µM). The “Inhibition of platelet aggregation induced by A.D.P.” value in [6] (1 × 10^-5 (unit not given), A.D.P. 5 mM/l) is reported as “inhibited platelet aggregation”. The “Inhibition of platelet aggregation induced by collagen” value in series [6] (1 × 10^-5 (unit not given), collagen 200 mg/cm^3) was “inhibited platelet aggregation”. In addition, in [6] (2 × 10^-4 M, adrenalin 2.5 mcM/l), the “Inhibition of platelet aggregation induced by adrenalin” value is listed as “inhibited platelet aggregation”. For the same compound, the “Action on the cardiovascular system (in words)” value in series [7] (aqueous solutions of the salts) was “vasodilators, this action being shown on coronary delivery, femoral delivery and vertebral delivery”. Moreover, in series [7] (in vivo), the “Cardiac frequency on increase in amplitude of cardiac contractions (in words)” value is “modified and transitory increase in cardiac frequency”.

`CN(C)CCOc1ccc(N2C(=O)C=C3CCCCC32)cc1Cl` (stereo not shown) [Example 15, 1-[3-chloro-4-(2-dimethylaminoethoxy)-phenyl]-2-oxo-2,4,5,6,7,7a-hexahydro-indole]: the “Aortal pressure, maximum variation in 30 minutes” value in series [2] (setting [10]) came out at 0%. Moreover, the “Cardiac Rhythm, maximum variation in 30 minutes” value in series [2] (setting [10]) is recorded as 0%. For the same compound, the Hygroscopicity entry in series [8] was “hygroscopic and absorbed 1/2 mol of water from the air”. The same compound gave a median lethal dose (LD50) in series [4] of 15 mg/kg. Moreover, the EC20 is 1 µg/mL (≈ 2.99 µM) in series [5] (setting [11]); 1 µg/mL (≈ 2.99 µM) in series [5] (direction arrow is a drawing, read-out: Rhythm: concentration producing a variation of 20%); 5 µg/mL (≈ 14.9 µM) in [9].
